Data on one molecule can be found in article PMC7866232, “New Substituted 5-Benzylideno-2-Adamantylthiazol[3,2-b][1,2,4]Triazol-6(5H)ones as Possible Anti-Inflammatory Agents” (Molecules, 2021).

Experiment [1] relates to carrageenin-induced mouse paw edema. As to the kind of experiment: Carrageenin-induced mouse paw edema (CPE), in vivo anti-inflammatory activity. How it is done:
The in vivo anti-inflammatory effect of the tested compounds was assessed by using the functional model of carrageenin-induced mouse paw edema and is presented as the percentage of inhibition of induction of edema at the right hind paw (Table 1).
Edema was measured by weight increase of the right hind paw in comparison to the […] left paw.
Twenty-five thiazolo[3,2-b]1,2,4-triazole derivatives, previously synthesized were evaluated for their anti-inflammatory activity, in vivo using groups of 6–10 mice of R’’’ strain.
The anti-inflammatory activity of the compounds synthesized was studied with the Carragenin-Induced Paw Edema acute inflammation test using an aqueous carrageenin solution (2%, 0,05 mL), [14] which was injected intradermally in the footpad of the right hind limb muscle (mice R’’’ groups of 6–10 animals), whereas the left end serves as a reference. In the experimental procedure both sex male mice were used, excluding pregnant. Animals were fasted during the time of the experiment. The tested compounds (0.01 mmol/kg body weight), were suspended in water, with few drops of Tween 80 and ground in a mortar before use and were given intraperitoneally simultaneously with the carrageenin injection.

The target of a further experiment is T1, human recombinant COX-2 (Homo sapiens, UniProt P35354).
T1 construct: purchased Cayman Chemical Co., Ann Arbor, MI, USA
T1 sequence (P35354 18-604): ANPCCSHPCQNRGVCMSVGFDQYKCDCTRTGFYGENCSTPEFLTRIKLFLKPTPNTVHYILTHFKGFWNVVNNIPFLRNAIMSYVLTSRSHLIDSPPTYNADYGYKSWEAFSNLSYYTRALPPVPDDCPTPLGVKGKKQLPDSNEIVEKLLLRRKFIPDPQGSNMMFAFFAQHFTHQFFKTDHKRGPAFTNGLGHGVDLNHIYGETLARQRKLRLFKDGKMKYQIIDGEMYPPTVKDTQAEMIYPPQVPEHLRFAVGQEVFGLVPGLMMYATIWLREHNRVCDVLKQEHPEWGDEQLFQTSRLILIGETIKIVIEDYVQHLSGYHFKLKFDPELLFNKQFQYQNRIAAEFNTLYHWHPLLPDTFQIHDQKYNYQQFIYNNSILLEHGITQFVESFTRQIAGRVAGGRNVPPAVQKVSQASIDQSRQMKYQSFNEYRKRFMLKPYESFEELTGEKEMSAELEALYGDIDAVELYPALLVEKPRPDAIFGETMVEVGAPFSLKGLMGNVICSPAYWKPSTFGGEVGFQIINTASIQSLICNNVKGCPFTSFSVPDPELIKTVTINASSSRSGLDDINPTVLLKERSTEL
The experiment is described as follows: COX inhibitor screening assay in vitro, COX-2. The experiment is classed as biochemical. As to conditions: at 200 μM, 0.1 μM arachidonic acid. The protocol: (§1) The COX-1 and COX-2 activities of the compounds were measured using ovine COX-1 and human recombinant COX-2 enzymes included in the “COX I inhibitor Screening Assay” kit provided by Cayman (Cayman Chemical Co., Ann Arbor, MI, USA). The assay directly measures PGF2 a produced by SnCl2 reduction of COX-derived PGH2. The prostanoid production was quantified via enzyme immunoassay using a broadly specific antibody that binds to all the major prostaglandin compounds. […]

The target in the next experiment is T2, ovine COX-1 (Ovis aries, UniProt P05979).
T2 construct: purchased Cayman Chemical Co., Ann Arbor, MI, USA
T2 sequence (P05979 25-600): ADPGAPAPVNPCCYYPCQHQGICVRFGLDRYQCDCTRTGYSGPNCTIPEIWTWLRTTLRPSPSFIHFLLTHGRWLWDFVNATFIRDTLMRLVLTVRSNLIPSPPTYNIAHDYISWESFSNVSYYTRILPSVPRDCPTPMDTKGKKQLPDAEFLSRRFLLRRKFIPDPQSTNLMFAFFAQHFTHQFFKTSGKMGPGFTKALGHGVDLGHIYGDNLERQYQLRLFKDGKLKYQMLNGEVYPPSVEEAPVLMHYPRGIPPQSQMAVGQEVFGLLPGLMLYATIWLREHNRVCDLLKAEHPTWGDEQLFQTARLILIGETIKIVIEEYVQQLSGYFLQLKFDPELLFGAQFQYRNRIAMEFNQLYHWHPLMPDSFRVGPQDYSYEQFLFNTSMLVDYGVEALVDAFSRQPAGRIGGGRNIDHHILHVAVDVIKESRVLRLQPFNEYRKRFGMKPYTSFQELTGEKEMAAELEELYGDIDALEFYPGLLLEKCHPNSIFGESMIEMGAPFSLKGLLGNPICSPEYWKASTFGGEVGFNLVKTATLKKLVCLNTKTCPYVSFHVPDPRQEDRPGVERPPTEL
As to the kind of experiment: COX inhibitor screening assay in vitro, COX-1. In kind it is biochemical. The protocol: as §1

The next experiment has as its target T3, soybean lipoxygenase (Glycine max, UniProt P08170).
T3 sequence (P08170 1-839): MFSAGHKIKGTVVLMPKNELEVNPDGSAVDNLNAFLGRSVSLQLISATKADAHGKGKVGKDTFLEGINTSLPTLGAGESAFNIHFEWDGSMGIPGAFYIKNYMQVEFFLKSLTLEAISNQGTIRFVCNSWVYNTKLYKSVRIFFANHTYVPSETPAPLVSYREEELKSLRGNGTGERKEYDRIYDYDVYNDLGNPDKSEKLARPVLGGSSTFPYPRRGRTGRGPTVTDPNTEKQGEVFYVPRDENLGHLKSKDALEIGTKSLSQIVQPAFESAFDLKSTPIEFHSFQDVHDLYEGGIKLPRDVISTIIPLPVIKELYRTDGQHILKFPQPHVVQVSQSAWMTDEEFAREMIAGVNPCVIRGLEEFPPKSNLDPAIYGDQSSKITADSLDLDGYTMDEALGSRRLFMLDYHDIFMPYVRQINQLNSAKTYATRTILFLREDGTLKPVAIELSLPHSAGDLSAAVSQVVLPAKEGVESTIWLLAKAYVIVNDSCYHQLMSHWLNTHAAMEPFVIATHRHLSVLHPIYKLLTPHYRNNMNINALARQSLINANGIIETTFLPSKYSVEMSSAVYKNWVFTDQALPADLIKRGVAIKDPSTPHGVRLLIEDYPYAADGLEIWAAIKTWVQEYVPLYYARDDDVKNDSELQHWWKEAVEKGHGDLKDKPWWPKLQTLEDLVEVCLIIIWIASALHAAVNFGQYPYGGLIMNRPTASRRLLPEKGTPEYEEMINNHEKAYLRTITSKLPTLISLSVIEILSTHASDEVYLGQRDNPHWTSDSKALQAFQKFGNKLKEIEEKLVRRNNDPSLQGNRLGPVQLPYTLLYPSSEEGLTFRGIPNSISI
The experiment is described as follows: Soybean lipoxygenase inhibition in vitro. To be noted: 0.1 mM sodium linoleate, 234 nm. In kind it is biochemical. How it is done:
The compounds tested were dissolved in DMSO and preincubated for 4 min at 28 °C in the presence of 753 U/mL 5-soybean lipoxygenase (5-LOX). The enzyme reaction was triggered by addition of a final concentration of 0.1 mM sodium linoleate. The conversion of sodium linoleate 13-hydrouperoxylinoleic acid was measured at 234 nm. Absorbance was measured at time 0 and 3 min.

`COc1ccc(/C=c2\sc3nc(C45CC6CC(CC(C6)C4)C5)nn3c2=O)cc1` [Compound 8] gave an inhibition in vivo at 10 µmol/kg in experiment [1] (Mus musculus, ip, mice, 0.01 mmol/kg body weight intraperitoneally, given simultaneously with carrageenin (2%, 0.05 mL)) of 51 to 67%. Moreover, the “increased anti-inflammatory activity compared to indomethacin” value in experiment [1] (carrageenin paw edema, relative to indomethacin) was 32%. Moreover, on human recombinant COX-2, the “COX-2 (%) inhibition” value is “completely inactive”. In addition, the inhibition at 200 µM at human recombinant COX-2 (read-out: COX-2 (%) inhibition) turned out to be 0%; at ovine COX-1 (at 200 μM, 0.1 μM arachidonic acid, read-out: COX-1 (%) inhibition) it was 60.5%. Also, inhibition at ovine COX-1 was half-maximal at 41.9 µM (IC50). At soybean lipoxygenase, the “LOX (%) inhibition” value worked out at 5.72%.
